Measurements as given in ChEMBL document CHEMBL1641457, “The synthesis and biological evaluation of 1-C-alkyl-L-arabinoiminofuranoses, a novel class of α-glucosidase inhibitors” (Bioorg Med Chem Lett, 2011).
pIC50: −log10 of the molar value.

Columns and labels:
[1] = molecular target: T1, Sucrase-isomaltase, intestinal (Rattus norvegicus, UniProt P23739); assay: Inhibition of Wistar rat small intestine sucrase after 30 mins
[2] = molecular target: T1, Sucrase-isomaltase, intestinal; assay: Inhibition of Wistar rat small intestine isomaltase after 30 mins
Rattus norvegicus = species: Rattus norvegicus; assay: Inhibition of Wistar rat small intestine cellobiase at 1000 uM after 30 mins
[3] = molecular target: Lactase/phlorizin hydrolase (Rattus norvegicus) (UniProt Q02401); assay: Inhibition of Wistar rat small intestine lactase at 1000 uM after 30 mins
[4] = molecular target: Lysosomal alpha-glucosidase (Rattus norvegicus) (UniProt Q6P7A9); conditions: Wistar, 1000 uM
Description: Inhibition of Wistar rat small intestine maltase at 1000 uM after 30 mins

[5] = molecular target: Sucrase-isomaltase, intestinal (Rattus norvegicus) (UniProt P23739); assay: Inhibition of Wistar rat small intestine isomaltase at 1000 uM after 30 mins
Sequence of Sucrase-isomaltase, intestinal (Rattus norvegicus) (P23739 1-1013 limits assumed): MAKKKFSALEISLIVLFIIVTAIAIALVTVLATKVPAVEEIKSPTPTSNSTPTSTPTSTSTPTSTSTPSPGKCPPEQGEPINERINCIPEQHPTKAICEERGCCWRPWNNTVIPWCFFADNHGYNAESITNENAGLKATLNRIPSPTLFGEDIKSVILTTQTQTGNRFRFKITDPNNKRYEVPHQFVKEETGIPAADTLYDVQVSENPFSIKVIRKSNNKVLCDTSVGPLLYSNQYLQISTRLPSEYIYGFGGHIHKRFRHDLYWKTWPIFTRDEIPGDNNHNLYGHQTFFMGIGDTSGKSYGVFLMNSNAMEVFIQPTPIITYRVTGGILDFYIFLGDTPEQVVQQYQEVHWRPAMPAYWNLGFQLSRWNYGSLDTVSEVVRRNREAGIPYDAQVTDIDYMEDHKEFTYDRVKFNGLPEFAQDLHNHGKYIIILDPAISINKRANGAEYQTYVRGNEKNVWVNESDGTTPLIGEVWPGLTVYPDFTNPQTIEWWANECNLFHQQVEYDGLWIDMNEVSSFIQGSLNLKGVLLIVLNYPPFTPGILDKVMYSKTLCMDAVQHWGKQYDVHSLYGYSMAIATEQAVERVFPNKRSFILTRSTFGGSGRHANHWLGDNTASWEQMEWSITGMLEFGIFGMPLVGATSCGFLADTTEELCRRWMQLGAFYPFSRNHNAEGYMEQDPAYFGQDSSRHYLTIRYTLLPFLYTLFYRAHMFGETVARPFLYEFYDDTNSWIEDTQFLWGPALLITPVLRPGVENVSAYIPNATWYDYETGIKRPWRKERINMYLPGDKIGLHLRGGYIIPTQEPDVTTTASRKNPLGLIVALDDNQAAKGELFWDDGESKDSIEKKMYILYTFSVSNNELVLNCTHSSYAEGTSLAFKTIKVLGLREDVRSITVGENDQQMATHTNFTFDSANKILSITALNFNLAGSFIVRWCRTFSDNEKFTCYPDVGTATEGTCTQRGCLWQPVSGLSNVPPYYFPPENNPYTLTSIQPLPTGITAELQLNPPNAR
Sequence of Sucrase-isomaltase, intestinal (Rattus norvegicus) (P23739 1014-1841 limits assumed): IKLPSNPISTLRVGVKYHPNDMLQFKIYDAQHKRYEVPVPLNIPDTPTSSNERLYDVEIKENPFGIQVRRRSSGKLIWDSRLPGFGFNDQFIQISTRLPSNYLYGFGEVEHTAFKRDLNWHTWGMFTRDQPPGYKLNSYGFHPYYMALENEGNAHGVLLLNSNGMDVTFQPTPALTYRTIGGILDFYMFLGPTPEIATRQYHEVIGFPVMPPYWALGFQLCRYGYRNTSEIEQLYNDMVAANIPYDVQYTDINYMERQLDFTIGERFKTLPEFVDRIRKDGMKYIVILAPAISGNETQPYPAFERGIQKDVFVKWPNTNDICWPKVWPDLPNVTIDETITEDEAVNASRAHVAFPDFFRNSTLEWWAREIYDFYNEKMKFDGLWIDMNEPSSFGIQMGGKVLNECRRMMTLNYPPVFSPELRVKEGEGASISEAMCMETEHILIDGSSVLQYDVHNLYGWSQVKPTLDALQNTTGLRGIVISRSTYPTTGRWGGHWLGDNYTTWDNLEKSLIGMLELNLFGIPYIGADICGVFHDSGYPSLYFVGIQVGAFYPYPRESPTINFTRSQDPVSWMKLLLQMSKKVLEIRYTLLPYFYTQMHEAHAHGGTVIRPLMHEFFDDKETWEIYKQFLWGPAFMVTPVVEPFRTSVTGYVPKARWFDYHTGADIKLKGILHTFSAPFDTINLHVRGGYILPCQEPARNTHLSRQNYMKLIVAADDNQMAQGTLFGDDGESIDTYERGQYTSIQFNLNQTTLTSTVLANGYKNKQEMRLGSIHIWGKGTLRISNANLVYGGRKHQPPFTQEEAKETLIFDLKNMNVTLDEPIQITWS

Sequence of Lactase/phlorizin hydrolase (Rattus norvegicus) (Q02401 868-1928 limits assumed): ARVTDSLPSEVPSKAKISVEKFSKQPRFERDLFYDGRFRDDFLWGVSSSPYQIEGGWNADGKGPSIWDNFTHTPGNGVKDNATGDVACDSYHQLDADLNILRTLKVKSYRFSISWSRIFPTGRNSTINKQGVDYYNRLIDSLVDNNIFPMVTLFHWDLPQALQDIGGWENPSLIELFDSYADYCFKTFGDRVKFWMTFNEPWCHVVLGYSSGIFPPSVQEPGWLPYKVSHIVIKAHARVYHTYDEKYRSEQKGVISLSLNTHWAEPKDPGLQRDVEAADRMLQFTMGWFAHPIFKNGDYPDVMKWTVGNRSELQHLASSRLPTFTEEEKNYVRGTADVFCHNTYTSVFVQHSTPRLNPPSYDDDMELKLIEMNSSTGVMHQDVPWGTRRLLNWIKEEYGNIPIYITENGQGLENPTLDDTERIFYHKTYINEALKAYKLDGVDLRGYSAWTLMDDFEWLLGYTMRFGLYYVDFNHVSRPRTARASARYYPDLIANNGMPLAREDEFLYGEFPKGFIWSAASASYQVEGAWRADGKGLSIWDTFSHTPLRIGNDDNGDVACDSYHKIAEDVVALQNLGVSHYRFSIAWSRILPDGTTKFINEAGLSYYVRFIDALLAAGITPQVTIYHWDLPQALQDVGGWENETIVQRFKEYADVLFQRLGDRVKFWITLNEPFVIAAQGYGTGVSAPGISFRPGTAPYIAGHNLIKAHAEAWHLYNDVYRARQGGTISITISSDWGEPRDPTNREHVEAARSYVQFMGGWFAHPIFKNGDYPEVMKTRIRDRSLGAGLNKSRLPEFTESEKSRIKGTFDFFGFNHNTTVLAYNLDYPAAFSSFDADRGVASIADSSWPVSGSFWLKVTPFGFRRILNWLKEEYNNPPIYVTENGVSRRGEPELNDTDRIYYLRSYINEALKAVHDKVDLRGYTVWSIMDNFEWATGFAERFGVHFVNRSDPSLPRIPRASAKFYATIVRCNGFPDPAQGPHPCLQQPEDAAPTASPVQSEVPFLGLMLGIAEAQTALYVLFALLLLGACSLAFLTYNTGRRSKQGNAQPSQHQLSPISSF
T1 sequence (P23739 1-1013 limits assumed): as the sequence (P23739 1-1013 limits assumed) above
T1 sequence (P23739 1014-1841 limits assumed): as the sequence (P23739 1014-1841 limits assumed) above
Sequence of Lysosomal alpha-glucosidase (Rattus norvegicus) (Q6P7A9 whole entry): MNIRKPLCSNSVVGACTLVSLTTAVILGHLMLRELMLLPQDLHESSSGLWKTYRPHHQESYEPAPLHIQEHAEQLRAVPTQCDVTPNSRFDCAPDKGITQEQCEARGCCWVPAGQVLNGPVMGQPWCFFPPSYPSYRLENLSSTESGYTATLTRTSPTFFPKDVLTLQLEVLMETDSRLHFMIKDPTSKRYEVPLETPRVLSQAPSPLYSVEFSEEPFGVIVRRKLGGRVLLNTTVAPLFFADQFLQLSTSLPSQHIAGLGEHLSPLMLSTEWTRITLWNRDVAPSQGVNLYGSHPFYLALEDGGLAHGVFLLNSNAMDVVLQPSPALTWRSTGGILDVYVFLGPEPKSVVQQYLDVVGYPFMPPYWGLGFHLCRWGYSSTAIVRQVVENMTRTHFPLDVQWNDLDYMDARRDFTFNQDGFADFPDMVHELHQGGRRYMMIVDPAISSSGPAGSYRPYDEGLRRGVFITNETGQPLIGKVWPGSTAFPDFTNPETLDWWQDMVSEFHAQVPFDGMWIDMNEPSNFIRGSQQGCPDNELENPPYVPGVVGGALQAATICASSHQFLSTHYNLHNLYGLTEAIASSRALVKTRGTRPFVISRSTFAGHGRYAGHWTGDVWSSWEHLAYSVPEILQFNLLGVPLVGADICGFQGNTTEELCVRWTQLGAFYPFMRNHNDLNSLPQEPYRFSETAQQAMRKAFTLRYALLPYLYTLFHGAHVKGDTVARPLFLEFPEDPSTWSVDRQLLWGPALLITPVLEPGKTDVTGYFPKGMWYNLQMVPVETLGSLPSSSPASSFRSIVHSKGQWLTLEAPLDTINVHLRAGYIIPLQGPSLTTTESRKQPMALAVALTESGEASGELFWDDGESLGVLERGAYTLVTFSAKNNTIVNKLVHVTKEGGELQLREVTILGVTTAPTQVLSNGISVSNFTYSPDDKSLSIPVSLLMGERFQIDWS

Structure (SMILES) | pIC50 [1] | pIC50 [2] | inhibition (Rattus norvegicus) | inhibition [3] | inhibition [4] | inhibition [5]
CCCCCCCCCC[C@@H]1N[C@@H](CO)[C@H](O)[C@H]1O | 5.77 | 3.22 | < 50% | < 50% | – | –
CCCC[C@H]1N[C@@H](CO)[C@H](O)[C@H]1O | 3.41 | – | < 50% | < 50% | < 50% | < 50%
OCC(CO)N[C@H]1C[C@](O)(CO)[C@@H](O)[C@H](O)[C@H]1O [VOGLIBOSE] | 6.43 | 5.28 | < 50% | < 50% | – | –
CCCC[C@@H]1N[C@@H](CO)[C@H](O)[C@H]1O | 7.49 | 5.33 | < 50% | < 50% | – | –
OCCN1C[C@H](O)[C@@H](O)[C@H](O)[C@H]1CO [MIGLITOL] | – | – | < 50% | < 50% | – | –
CCCCCCCCC[C@@H]1N[C@@H](CO)[C@H](O)[C@H]1O | 5.85 | 3.77 | < 50% | < 50% | – | –
CCC[C@@H]1N[C@@H](CO)[C@H](O)[C@H]1O | 6.59 | 4.33 | < 50% | < 50% | – | –
CCCCC[C@@H]1N[C@@H](CO)[C@H](O)[C@H]1O | 6.72 | 4.74 | < 50% | < 50% | – | –
CCCC[C@H]1[C@H](O)[C@@H](O)[C@H](CO)N1CCCC | 5.06 | – | < 50% | < 50% | – | < 50%
CC[C@@H]1N[C@@H](CO)[C@H](O)[C@H]1O | 6.17 | 4.96 | < 50% | < 50% | – | –
C[C@H]1O[C@H](O[C@H]2[C@H](O)[C@@H](O)[C@@H](O[C@H]3[C@H](O)[C@@H](O)C(O)O[C@@H]3CO)O[C@@H]2CO)[C@H](O)[C@@H](O)[C@@H]1N[C@H]1C=C(CO)[C@@H](O)[C@H](O)[C@H]1O (some centres not stated) | – | – | < 50% | < 50% | – | < 50%
CCCCCCC[C@@H]1N[C@@H](CO)[C@H](O)[C@H]1O | 6.62 | 4.80 | < 50% | < 50% | – | –
CCCCCCCCCCC[C@@H]1N[C@@H](CO)[C@H](O)[C@H]1O | 4.89 | – | < 50% | < 50% | – | < 50%
CCCCCC[C@@H]1N[C@@H](CO)[C@H](O)[C@H]1O | 6.96 | 4.96 | < 50% | < 50% | – | –
CCCCCCCC[C@H]1N[C@@H](CO)[C@H](O)[C@H]1O | 3.23 | – | < 50% | < 50% | – | < 50%
CCCCCCCC[C@@H]1N[C@@H](CO)[C@H](O)[C@H]1O | 6.35 | 4.12 | < 50% | < 50% | – | –
